According to patent US7605154B2, “Substituted Thiazolo [4,5-d]pyrimidines as protein kinase inhibitors” (Janssen Pharmaceutica N.V., priority 2005, dated 2009):
Values joined by “and” are separate entries in the source; they are usually repeats but may differ in a detail not shown here. Identical values can stand only once.

Columns and labels:
[1] = molecular target: T1, EGFR (Homo sapiens, UniProt P00533); experiment: EGFR Kinase Assay; type: biochemical; settings: for IC50: GST-EGFR, 5 μM ATP
T1 construct: started at nucleotide 2189 (corresponding to amino acid 667) and ended at the termination codon; made in house; host or cells: Sf9 insect cells (baculovirus)
Description: The portion was PCR amplified with primers that added the lambda attB sequences to each end, recombined into an entry vector, then into a, GST destination vector (as described in Gateway Technologies Manual by Invitrogen Corporation, Carlsbad, Calif.).
The destination vector was recombined in the DH10BAC strain of bacteria to produce a bacmid. The bacmid was transfected into Sf 9 cells and the supernatant containing the baculovirus was collected. The GSTEGFR protein was purified using large cultures of Sf 9 cells infected with stock virus. After an appropriate period of time, the cells were collected and lysed. The GSTEGFR was then purified from the lysate on Glutathione-Sepharose columns (as described by Amersham Biosciences, Buckinghamshire, United Kingdom).
The free biotin was separated from the biotinylated polyGluTyr on a gel filtration column.
A mixture of a 10× kinase buffer (500 mM Tris at pH 8.0, 100 mM Magnesium Chloride and 1 mM Sodium Vanadate), DTT (1 mM final from 500 mM stock), ATP (5 μM final from 10 mM stock), biotinylated polyGluTyr (10 μg/μL stock), γ-^33P ATP (10 μCi/μL stock) and water was added to each well (90 μL/well) of a Streptavidin Flashplate (Perkin Elmer, Wellesley, Mass.).
Test compound in 100% DMSO (2 μL) was added to the appropriate wells. Diluted GSTEGFR (1:300 dilution in 50 mM Tris at pH 8.0 and 0.1% bovine serum albumin) (10 μL) was added to the wells to initiate the reactions.
The plates were incubated at 30° C. for 1 hr with shaking. The reacted contents were removed and the plates were sequentially washed three times with a 1×PBS stop buffer (300 μL without Magnesium and Calcium) and 100 mM EDTA. After the final wash, the same stop buffer (200 μL) was added to the wells. The plates were then sealed and read on the TopCount scintillation counter.
Test compounds were assayed in triplicate at 16 concentrations at half-log dilutions starting at 200 uM. A maximum and minimum signal for the assay was determined on each plate. The percent inhibition of a test compound was calculated according to the formula
For a series of test concentrations, the IC50 was derived by graphing percent inhibition against the log of the concentrations tested for a given compound.

[2] = system: SK-OV-3; experiment: SK-OV-3 Cell Migration Inhibition; type: cell-based; settings: several values in a cell are repeat determinations
[3] = molecular target: T2, c-Src kinase (Homo sapiens, UniProt P12931); experiment: c-Src Kinase Assay; type: biochemical; settings: test concentration of 1 μM
T2 construct: purchased Upstate Biotechnology, Lake Placid, N.Y
Protocol: A mixure of a 10× kinase buffer (80 mM MOPS at pH 7.0, 2 mM EDTA and 100 mM Magnesium Chloride), ATP (5 μM final from a 10 mM stock), a Cdc2 peptide […] (100 μM final from a 2.5 mM stock), γ-^33P ATP (10 μCi/μL stock) and water (20 μL/well) was added to each well of a Streptavidin Flashplate.
Test compound in 100% DMSO (0.5 μL) was added to the appropriate wells. Diluted c-Src kinase (human) (Upstate Biotechnology, Lake Placid, N.Y.) (diluted in a buffer consisting of 20 mM MOPS at pH 7.0, 1 mM EDTA, β-mercaptoethanol (0.1%), Brij-35 (0.01%), glycerol (5%), and 1 mg/mL bovine serum albumin) (2.5 μL) was added to the wells to initiate the reactions. The reaction plates were incubated at 30° C. for 40 min. The reaction was terminated by the addition of a 3% phosphoric acid solution (5 μL). The reaction product (10 μL) was spotted onto a P30 filtermat and washed for 5 minutes in phosphoric acid (75 mM). The wash sequence was repeated two more times, followed with one final wash in methanol. The plates were then dried, sealed and read on the TopCount scintillation counter after adding 30 μL scintillation fluid.
Percent inhibition was derived according to the procedure described in Example 5. The results for those compounds tested are shown in Table 2 at a test concentration of 1 μM.

[4] = Homo sapiens, SK-OV-3, SK-OV-3 migration

T1 sequence (P00533 667-1210 limits assumed): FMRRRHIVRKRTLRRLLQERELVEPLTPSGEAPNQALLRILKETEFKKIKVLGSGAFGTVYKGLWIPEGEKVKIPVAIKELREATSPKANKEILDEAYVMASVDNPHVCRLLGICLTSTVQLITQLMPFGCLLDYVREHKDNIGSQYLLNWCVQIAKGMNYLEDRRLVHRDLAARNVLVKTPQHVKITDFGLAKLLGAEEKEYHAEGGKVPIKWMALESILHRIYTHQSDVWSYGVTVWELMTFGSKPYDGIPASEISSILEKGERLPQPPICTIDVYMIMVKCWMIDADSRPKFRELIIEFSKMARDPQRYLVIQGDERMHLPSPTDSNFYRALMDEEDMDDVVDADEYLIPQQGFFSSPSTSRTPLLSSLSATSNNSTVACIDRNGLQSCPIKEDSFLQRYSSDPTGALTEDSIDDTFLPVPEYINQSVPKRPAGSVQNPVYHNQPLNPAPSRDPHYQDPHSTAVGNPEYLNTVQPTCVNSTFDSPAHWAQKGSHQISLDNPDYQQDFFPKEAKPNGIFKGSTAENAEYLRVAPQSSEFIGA
T2 sequence (P12931 whole entry): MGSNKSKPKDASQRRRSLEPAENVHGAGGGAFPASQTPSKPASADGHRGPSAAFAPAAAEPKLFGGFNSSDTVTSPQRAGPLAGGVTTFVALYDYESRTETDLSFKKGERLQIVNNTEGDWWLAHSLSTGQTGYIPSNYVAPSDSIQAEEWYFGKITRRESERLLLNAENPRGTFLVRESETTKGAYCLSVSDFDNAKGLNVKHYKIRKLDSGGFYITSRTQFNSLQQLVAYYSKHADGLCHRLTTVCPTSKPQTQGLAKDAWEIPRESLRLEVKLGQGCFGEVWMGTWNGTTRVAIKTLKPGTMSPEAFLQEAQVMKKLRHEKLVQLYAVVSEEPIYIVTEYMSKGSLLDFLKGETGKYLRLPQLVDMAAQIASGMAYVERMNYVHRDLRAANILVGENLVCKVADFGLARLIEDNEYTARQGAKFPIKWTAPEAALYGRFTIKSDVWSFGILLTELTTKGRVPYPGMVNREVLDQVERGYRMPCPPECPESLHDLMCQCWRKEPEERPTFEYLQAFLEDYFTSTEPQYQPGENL

| SMILES | IC50 [1] | further results |
| --- | --- | --- |
| Fc1ccc(Nc2ncnc3nc(Nc4ccc(CCN5CCOCC5)cc4)sc23)cc1Cl [Cpd 4, N^7-(3-chloro-4-fluoro-phenyl)-N^2-[4-(2-morpholin-4-yl-ethyl)-phenyl]-thiazolo[4,5-d]pyrimidine-2,7-diamine] | 21.7 nM | IC50 [2, 4]: 735 nM; IC50 ([2]; SK-OV-3 migration): 520 nM |
| COCCN(CCOC)S(=O)(=O)c1ccc(Nc2nc3ncnc(Nc4ccc(F)c(Cl)c4)c3s2)cc1 [Cpd 32, 4-[7-(3-chloro-4-fluoro-phenylamino)-thiazolo[4,5-d]pyrimidin-2-ylamino]-N,N-bis-(2-methoxy-ethyl)-benzenesulfonamide] | 20.8 nM | IC50 [2, 4]: > 5000 nM |
| C#Cc1cccc(Nc2ncnc3nc(Nc4ccc(S(=O)(=O)N(CCOC)CCOC)cc4)sc23)c1 [Cpd 33, 4-[7-(3-ethynyl-phenylamino)-thiazolo[4,5-d]pyrimidin-2-ylamino]-N,N-bis-(2-methoxy-ethyl)-benzenesulfonamide] | 25.3 nM | IC50 [2, 4]: 252 nM |
| C#Cc1cccc(Nc2ncnc3nc(Nc4ccc(NCCCN5CCOCC5)nc4)sc23)c1 [Cpd 72, N^7-(3-ethynyl-phenyl)-N^2-[6-(3-morpholin-4-yl-propylamino)-pyridin-3-yl]-thiazolo[4,5-d]pyrimidine-2,7-diamine] | 28.2 nM | – |
| NS(=O)(=O)c1ccc(Nc2nc3ncnc(Nc4ccc(F)c(Cl)c4)c3s2)cc1 [Cpd 73, 4-[7-(3-chloro-4-fluoro-phenylamino)-thiazolo[4,5-d]pyrimidin-2-ylamino]-benzenesulfonamnide] | – | inhibition at 1 µM [3]: 65% |
| NS(=O)(=O)c1ccc(Nc2nc3ncnc(Nc4cccc(Cl)c4)c3s2)cc1 [Cpd 74, 4-[7-(3-chloro-phenylamino)-thiazolo[4,5-d]pyrimidin-2-ylamno]-benzenesulfonamide] | 6.6 nM | – |
| NS(=O)(=O)c1ccc(Nc2nc3ncnc(Nc4c(F)cccc4F)c3s2)cc1 [Cpd 75, 4-[7-(2,6-difluoro-phenylamino)-thiazolo[4,5-d]pyrimidin-2-ylamino]-benzenesulfonamide] | 187 nM | – |
| NS(=O)(=O)c1ccc(Nc2nc3ncnc(Nc4ccc(Cl)cc4F)c3s2)cc1 [Cpd 76, 4-[7-(4-chloro-2-fluoro-phenylamino)-thiazolo[4,5-d]pyrimidin-2-ylamino]-benzenesulfonamide] | 40.2 nM | – |
| NS(=O)(=O)c1ccc(Nc2nc3ncnc(Nc4ccc(Br)cc4F)c3s2)cc1 [Cpd 77, 4-[7-(4-bromo-2-fluoro-phenylamino)-thiazolo[4,5-d]pyrimidin-2-ylamino]-benzenesulfonamide] | 87 nM | – |
| NS(=O)(=O)c1ccc(Nc2nc3ncnc(Nc4cc(Cl)cc(Cl)c4)c3s2)cc1 [Cpd 81, 4-[7-(3,5-dichloro-phenylamino)-thiazolo[4,5-d]pyrimidin-2-ylamino]-benzenesulfonamide] | 116 nM | – |
| NS(=O)(=O)c1ccc(Nc2nc3ncnc(Nc4ccc(Br)c(Cl)c4)c3s2)cc1 [Cpd 82, 4-[7-(4-bromo-3-chloro-phenylamino)-thiazolo[4,5-d]pyrimidin-2-ylamino]-benzenesulfonamide] | 5 nM | – |
| NS(=O)(=O)c1ccc(Nc2nc3ncnc(Nc4ccc(N5CCOCC5)c(Cl)c4)c3s2)cc1 [Cpd 83, 4-[7-(3-chloro-4-(morpholin-4-yl)-phenylamino)-thiazolo[4,5-d]pyrimidin-2-ylamino]-benzenesulfonamide] | 3800 nM | – |
| NS(=O)(=O)c1ccc(Nc2nc3ncnc(Nc4ccc(CCN5CCOCC5)cc4)c3s2)cc1 [Cpd 85, 4-[7-(4-(morpholin-4-yl)ethyl-phenylamino)-thiazolo[4,5-d]pyrimidin-2-ylamino]-benzenesulfonamide] | 10100 nM | – |
| NS(=O)(=O)c1ccc(Nc2nc3ncnc(Nc4ccc(N5CCOCC5)cc4)c3s2)cc1 [Cpd 86, 4-[7-(4-(morpholin-4-yl)-phenylamino)-thiazolo[4,5-d]pyrimidin-2-ylamino]-benzenesulfonamide] | 17900 nM | – |
| COc1ccc(Nc2ncnc3nc(Nc4ccc(S(N)(=O)=O)cc4)sc23)cc1CN1CCOCC1 [Cpd 87, 4-[7-(4-methoxy-3-(morpholin-4-yl)methyl-phenylamino)-thiazolo[4,5-d]pyrimidin-2-ylamino]-benzenesulfonamide] | – | inhibition at 2 µM ([1]; test concentration of 2 μM, compounds without an IC50, read-out: EGFR percent inhibition): 13% |
| Clc1cc(Cl)cc(Nc2ncnc3nc(Nc4ccccc4)sc23)c1 [Cpd 91, N^7-(3,5-dichloro-phenyl)-N^2-phenyl-thiazolo[4,5-d]pyrimidine-2,7-diamine] | 733 nM | – |

Further lines, with some results ahead:

| IC50 [1] | SMILES | further results |
| --- | --- | --- |
| 10.3 nM | CN(C)CCCNS(=O)(=O)c1ccc(Nc2nc3ncnc(Nc4ccc(F)c(Cl)c4)c3s2)cc1 [Cpd 31, 4-[7-(3-chloro-4-fluoro-phenylamino)-thiazolo[4,5-d]pyrimidin-2-ylamino]-N-(3-dimethylamino-propyl)-benzenesulfonamide] | IC50 [2, 4]: 138 nM; IC50 ([2]; SK-OV-3 migration): 180 nM and 191 nM |
| 6.4 nM | COCCN(CCOC)Cc1ccc(Nc2nc3ncnc(Nc4ccc(F)c(Cl)c4)c3s2)cc1 [Cpd 34, N^2-(4-{[bis-(2-methoxy-ethyl)-amino]-methyl}-phenyl)-N^7-(3-chloro-4-fluoro-phenyl)-thiazolo[4,5-d]pyrimidine-2,7-diamine] | IC50 [2, 4]: 210 nM |
| 30 nM | C#Cc1cccc(Nc2ncnc3nc(Nc4ccc(CN5CCOCC5)cc4)sc23)c1 [Cpd 35, N^7-(3-ethynyl-phenyl)-N^2-(4-morpholin-4-ylmethyl-phenyl)-thiazolo[4,5-d]pyrimidine-2,7-diamine] | IC50 [2, 4]: 474 nM; IC50 ([2]; SK-OV-3 migration): 380 nM |
| 10.5 nM | NS(=O)(=O)c1ccc(Nc2nc3ncnc(Nc4cccc(Br)c4)c3s2)cc1 [Cpd 78, 4-[7-(3-bromo-phenylamino)-thiazolo[4,5-d]pyrimidin-2-ylamino]-benzenesulfonamide] | – |
| 14.3 nM | Cc1cccc(Nc2ncnc3nc(Nc4ccc(S(N)(=O)=O)cc4)sc23)c1 [Cpd 79, 4-[7-(3-methyl-phenylamino)-thiazolo[4,5-d]pyrimidin-2-ylamino]-benzenesulfonamide] | – |
| 82.5 nM | NS(=O)(=O)c1ccc(Nc2nc3ncnc(Nc4ccccc4)c3s2)cc1 [Cpd 80, 4-[7-(phenylamino)-thiazolo[4,5-d]pyrimidin-2-ylamino]-benzenesulfonamide] | – |
| 3300 nM | NS(=O)(=O)c1ccc(Nc2nc3ncnc(Nc4cccc(CN5CCOCC5)c4)c3s2)cc1 [Cpd 84, 4-[7-(3-(morpholin-4-yl)methyl-phenylamino)-thiazolo[4,5-d]pyrimidin-2-ylamino]-benzenesulfonamide] | – |
| 59.3 nM | Fc1ccc(Nc2ncnc3nc(Nc4ccccc4)sc23)cc1Cl [Cpd 88, N^7-(3-chloro-4-fluoro-phenyl)-N^2-phenyl-thiazolo[4,5-d]pyrimidine-2,7-diamine] | – |
| 27.1 nM | Clc1cccc(Nc2ncnc3nc(Nc4ccccc4)sc23)c1 [Cpd 89, N^7-(3-chloro-phenyl)-N^2-phenyl-thiazolo[4,5-d]pyrirnidine-2,7-diamine] | – |
| 16.5 nM | Brc1cccc(Nc2ncnc3nc(Nc4ccccc4)sc23)c1 [Cpd 90, N^7-(3-bromo-phenyl)-N^2-phenyl-thiazolo[4,5-d]pyrimidine-2,7-diamine] | – |
| 15.4 nM | N#Cc1ccc(Nc2nc3ncnc(Nc4ccc(F)c(Cl)c4)c3s2)cc1 [Cpd 92, 4-[7-(3-chloro-4-fluoro-phenylamino)-thiazolo[4,5-d]pyrimidin-2-ylamino]-benzonitrile] | – |
| 25.5 nM | N#Cc1ccc(Nc2nc3ncnc(Nc4cccc(Cl)c4)c3s2)cc1 [Cpd 93, 4-[7-(3-chloro-phenylamino)-thiazolo[4,5-d]pyrimidin-2-ylamino]-benzonitrile] | – |
